# Measured values from patent US20090269794A1, “SCREENING METHOD FOR COMPOUND INHIBITING DEVELOPMENT OR PROGRESSION OF FAMILIAL AMYOTROPHIC LATERAL SCLEROSIS AND DIAGNOSTIC METHOD FOR FAMILIAL AMYOTROPHIC LATERAL SCLEROSIS” (HISAMITSU PHARMACEUTICAL CO., INC., priority 2005, published 2009).
# Tests used:
# NEDL1 mRNA = NEDL1 mRNA expression by semi-quantitative RT-PCR in SK-N-BE (2) C cells; type: cell-based, human; details: 250 μM DFO for 24 hours, FIG. 2
# Protocol: Human neuroblastoma SK-N-BE (2) C cells were cultured in Dulbecco's […] (DMEM) containing 10% heat treated fetal bovine serum (FBS). Hypoxia culturing was carried out in a 2% oxygen concentration, with the cells in a Napco automatic O2/CO2 cell culture apparatus (Waken Co., Ltd.). DFO (Sigma) treatment was carried out by exposing the cells to 250 μM DFO for 24 hours.
# (Reverse Transcription Polymerase Chain Reaction (RT-PCR)) TRIZOL reagent (Invitrogen Corp.) was used according to the manufacturer's manual to prepare total RNA from untreated, hypoxia-treated, DFO-treated cells and the transfected cells. RT-PCR was conducted in the following manner. The prepared total RNA (1 μg/2.5 μL) was incubated at 75° C. for 5 minutes and then allowed to stand on ice for 5 minutes. The prepared RNA was added to a mixture of 0.5 μL RNase inhibitor (40 units/μL, Toyobo, Ltd.), 0.5 μL M-MLV reverse transcriptase (200 units/μL, Invitrogen Corp.), 1 μL 50×dNTPs (2 mM each), 0.5 μL oligo(dT) primer (0.5 mg/mL, Invitrogen Corp.), 2 μL 5×first-strand buffer (Invitrogen Corp.) and 1 μL 0.1 M dithiothreitol, and the mixture was incubated for 10 minutes at room temperature, 45 minutes at 37° C. and 3 minutes at 95° C. to prepare cDNA. The prepared cDNA was used as template with the primers under the following PCR conditions to amplify the NEDL1 and β-actin gene cDNA fragments. […]
# HIF-1α = details: cells exposed to DFO, normal oxygen conditions, Non-patent document 12; cited from earlier work
structure (smiles),measurement,setting,value
"CC(=O)N(O)CCCCCNC(=O)CCC(=O)N(O)CCCCCNC(=O)CCC(=O)N(O)CCCCCN [DFO, desferrioxamine]",NEDL1 mRNA expression,NEDL1 mRNA,increased
same,HIF-1α detection as protein,HIF-1α,detected
